Laboratory results published in patent US20090163517A1, “BENZOOXAZOLE, OXAZOLOPYRIDINE, BENZOTHIAZOLE AND THIAZOLOPYRIDINE DERIVATIVES” (priority 2005, published 2009).

Biological target: T1, human subtype 5 somatostatin receptor (Homo sapiens, UniProt P35346)
T1 construct: host or cells: CHO cell line, stably transfected; membranes prepared by sonication and centrifugation
Experiment: SSTR5 radioligand binding on membranes of CHO cells expressing the human receptor (125I-labeled 11-Tyr somatostatin-14 tracer)
Settings: Ki calculated from IC50 by the Cheng-Prussoff equation, 0.05 nM 125I tracer, 1 hour at room temperature, read-out: SSTR 5 Ki
Method: A CHO cell line stably transfected with a plasmid encoding the human subtype 5 somatostatin receptor (GenBank accession number D16827) was obtained from Euroscreen. Cells were cultured and used for binding and functional assays.
Membranes of these cells were prepared by sonication in the presence of protease inhibitors and subsequent fractionating centrifugation. The protein concentration in the membrane preparation was determined using a commercial kit (BCA kit, Pierce, USA). Membranes were stored at −80° C. until use. After thawing, membranes were diluted in assay buffer (50 mM TRIS-HCl at pH 7.4, 5 mM MgCl2 and 0.20% BSA (bovine serum albumine)) and subjected to dounce homogenization.
For binding studies, 0.1 mL membrane suspension, corresponding to app. 6×10^−15 mol receptor, was incubated for 1 hour at room temperature with 0.05 nM ^125I-labeled tracer (11-Tyr somatostatin-14, Perkin-Elmer) and either test compounds in varying concentrations or, for the determination of non-specific binding, 0.001 mM non-labeled somatostatin-14 (Sigma-Aldrich, Buchs, Switzerland). The incubation was stopped by filtration through GF/B glassfiber filters (Unifilter, Perkin-Elmer) and washing with ice-cold wash buffer (50 mM Tris-HCl at pH 7.4). The bound radioactivity was measured after application of a scintillation cocktail (Microscint 40, Perkin-Elmer) and expressed as disintegrations per minute (dpm).
The receptor concentration was determined in a prior saturation experiment where a fixed, arbitrary amount of membranes was incubated with a concentration range of radio-labeled tracer. This allows estimating the total number of specific binding sites per amount of protein (i.e., Bmax), typically between 1 and 5 pmol/mg.
The concentration of the test compound required to result in half maximal inhibition of binding of the radio-labeled tracer (IC50) was estimated from a concentration-versus-dpm graph. The binding affinity (Ki) was calculated from the IC50 by applying the Cheng-Prussoff equation for single binding sites.

T1 sequence (P35346 whole entry): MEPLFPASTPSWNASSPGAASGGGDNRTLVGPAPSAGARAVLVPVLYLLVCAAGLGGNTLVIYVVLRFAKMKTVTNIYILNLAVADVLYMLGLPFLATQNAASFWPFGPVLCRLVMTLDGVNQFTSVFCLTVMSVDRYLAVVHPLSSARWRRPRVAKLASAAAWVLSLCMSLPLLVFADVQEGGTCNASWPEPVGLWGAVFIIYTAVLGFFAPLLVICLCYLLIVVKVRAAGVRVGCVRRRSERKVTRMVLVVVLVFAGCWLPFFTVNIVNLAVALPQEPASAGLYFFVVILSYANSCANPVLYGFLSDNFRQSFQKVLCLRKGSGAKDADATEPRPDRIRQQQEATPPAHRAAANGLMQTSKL

Row | Ki | Structure (SMILES)
1 | 6 nM | CCOc1cc(CN2CCC(Nc3nc4c(N)cccc4o3)CC2)cc(OCC)c1-n1cccc1 [Example 23, N^2-[1-(3,5-Diethoxy-4-pyrrol-1-yl-benzyl)-piperidin-4-yl]-benzooxazole-2,4-diamine]
2 | 44 nM | CCOc1cc(CN2CCC(Nc3nc4ccc(C(=O)O)cc4o3)CC2)cc(OCC)c1N [Example 71, 2-[1-(4-Amino-3,5-diethoxy-benzyl)-piperidin-4-ylamino]-benzooxazole-6-carboxylic Acid]
3 | 223 nM | CCOc1cc(CN2CCC(Nc3nc4c([N+](=O)[O-])cccc4o3)CC2)ccc1F [Example 73, [1-(3-Ethoxy-4-fluoro-benzyl)-piperidin-4-yl]-(4-nitro-benzooxazol-2-yl)-amine]
